Series [1] is described as follows: refractive index (Na D-line) (dimensionless). As to conditions: Liquid, Standard Abbe refractometry.
Series [2] can be described thus: molar heat capacity at constant pressure. The conditions noted are these: 101.33 kPa, Liquid, Small sample (50 mg) DSC.
For series [3] the following is noted: 101 kPa, Liquid; for speed of sound: Sing-around technique in a fixed-path interferometer; for mass density: Vibrating tube method.
Series [4] can be described thus: refractive index (Na D-line) (dimensionless); xn = mol fraction of the nth substance listed. As to conditions: 101 kPa, Liquid, Standard Abbe refractometry, x1 = 1.
A short description of series [5]: xn = mol fraction of the nth substance listed. The conditions noted are these: 308.15 K; 101 kPa; Liquid; Sing-around technique in a fixed-path interferometer; x1 = 1.

Structures are written as SMILES. Numbers after ± are expanded uncertainties.

In the case of `CCOS(=O)(=O)[O-].CCc1cccc[n+]1CC` [1,2-diethylpyridinium ethylsulfate], the refractive index (in general, the speed of light in vacuum divided by its phase velocity in the sample) was 1.51631 ± 0.00053 in series [1] (288.15 K, 101 kPa); 1.51631 ± 0.00053 in series [1] (288.15 K, 101.33 kPa); 1.5135 ± 0.00053 in series [1] (298.15 K, 101 kPa); 1.5135 ± 0.00053 in series [1] (298.15 K, 101.33 kPa); 1.51067 ± 0.00053 in series [1] (308.15 K, 101 kPa); 1.51067 ± 0.00053 in series [1] (308.15 K, 101.33 kPa). Besides, the “molar heat capacity at constant pressure” value in series [2] (288.15 K) is recorded as 399 ± 8 J/K/mol; in series [2] (298.15 K), 412 ± 8 J/K/mol; in series [2] (308.15 K) it was 420 ± 8 J/K/mol. The speed of sound – broadly, how fast a sound wave travels through the sample – in series [3] (288.15 K) stood at 1774.5 ± 1.5 m/s; in series [3] (298.15 K), 1745.2 ± 1.5 m/s; in series [3] (308.15 K), 1718.4 ± 1.5 m/s. Besides, the mass density (in general, the mass of a sample divided by its volume) in series [3] (288.15 K) worked out at 1225.93 ± 0.54 kg/m3; in series [3] (298.15 K) it was 1219.26 ± 0.53 kg/m3; in series [3] (308.15 K), 1212.65 ± 0.52 kg/m3.

For `CCCC[N+]1(C)CCCC1.N#CN=C=[N-]` [1-butyl-1-methylpyrrolidinium dicyanamide], the refractive index in series [1] (288.15 K, 101 kPa) worked out at 1.49968 ± 0.00063; in series [1] (288.15 K, 101.33 kPa) it was 1.49968 ± 0.00063; in series [1] (298.15 K, 101 kPa), 1.49681 ± 0.00063; in series [1] (298.15 K, 101.33 kPa), 1.49681 ± 0.00063; in series [1] (308.15 K, 101 kPa), 1.49392 ± 0.00064; in series [1] (308.15 K, 101.33 kPa), 1.49392 ± 0.00064. The “molar heat capacity at constant pressure” value in series [2] (288.15 K) was 473 ± 9 J/K/mol; in series [2] (298.15 K), 502 ± 10 J/K/mol; in series [2] (308.15 K), 521 ± 10 J/K/mol. For the same compound, the speed of sound in series [3] (288.15 K) is 1836.9 ± 2.3 m/s; in series [3] (298.15 K), 1811.1 ± 2.3 m/s; in series [3] (308.15 K), 1781.9 ± 2.3 m/s. In addition, the mass density is given as 1019.17 ± 1.1 kg/m3 in series [3] (288.15 K), 1013.53 ± 1.1 kg/m3 in series [3] (298.15 K) and 1007.93 ± 1.1 kg/m3 in series [3] (308.15 K).

Turning to `CCCC[N+]1(C)CCCC1.O=S(=O)([O-])C(F)(F)F` [1-butyl-1-methylpyrrolidinium trifluoromethanesulfonate], the refractive index is listed as 1.43557 ± 0.00052 in series [1] (288.15 K, 101 kPa); 1.43289 ± 0.00052 in series [1] (298.15 K, 101 kPa); 1.43018 ± 0.00052 in series [1] (308.15 K, 101 kPa). The results for the “molar heat capacity at constant pressure” value in series [2] (288.15 K), in series [2] (298.15 K) and in series [2] (308.15 K) were 424 ± 8 J/K/mol, 435 ± 9 J/K/mol and 441 ± 9 J/K/mol, respectively. In addition, the speed of sound in series [3] (288.15 K) came to 1484.6 ± 1.4 m/s; in series [3] (298.15 K) it was 1460.1 ± 1.4 m/s; in series [3] (308.15 K) it was 1436.7 ± 1.4 m/s. The mass density in series [3] (288.15 K) turned out to be 1260.33 ± 0.58 kg/m3; in series [3] (298.15 K) it was 1252.98 ± 0.57 kg/m3; in series [3] (308.15 K), 1245.78 ± 0.56 kg/m3.

In the case of `CCCCn1cc[n+](C)c1.N#CN=C=[N-]` [1-butyl-3-methylimidazolium dicyanamide], the refractive index in series [1] (288.15 K, 101 kPa) came out at 1.51213 ± 0.00065; in series [1] (288.15 K, 101.33 kPa), 1.51213 ± 0.00065; in series [1] (298.15 K, 101 kPa), 1.50893 ± 0.00065; in series [1] (298.15 K, 101.33 kPa), 1.50893 ± 0.00065; in series [1] (308.15 K, 101 kPa) it was 1.50578 ± 0.00065; in series [1] (308.15 K, 101.33 kPa), 1.50578 ± 0.00065. In addition, the “molar heat capacity at constant pressure” value in series [2] (288.15 K) came to 367 ± 7 J/K/mol; in series [2] (298.15 K), 376 ± 8 J/K/mol; in series [2] (308.15 K) it was 381 ± 8 J/K/mol. Further, the speed of sound amounted to 1764.3 ± 2.3 m/s in series [3] (288.15 K), 1738.1 ± 2.3 m/s in series [3] (298.15 K) and 1713.1 ± 2.3 m/s in series [3] (308.15 K). For the same compound, the mass density in series [3] (288.15 K) is 1066.58 ± 1.3 kg/m3; in series [3] (298.15 K), 1060.17 ± 1.2 kg/m3; in series [3] (308.15 K), 1053.83 ± 1.2 kg/m3.

For `CCCCn1cc[n+](C)c1.O=S(=O)([O-])C(F)(F)F` [1-butyl-3-methylimidazolium trifluoromethanesulfonate], the refractive index in series [1] (288.15 K, 101 kPa) is reported as 1.44032 ± 0.00053; in series [1] (288.15 K, 101.33 kPa), 1.44032 ± 0.00053; in series [1] (298.15 K, 101 kPa), 1.43755 ± 0.00053; in series [1] (298.15 K, 101.33 kPa), 1.43755 ± 0.00053; in series [1] (308.15 K, 101 kPa), 1.43475 ± 0.00053; in series [1] (308.15 K, 101.33 kPa), 1.43475 ± 0.00053. Also, the figures for the speed of sound in series [3] (288.15 K), in series [3] (298.15 K) and in series [3] (308.15 K) were 1414.3 ± 1.4 m/s, 1391.4 ± 1.4 m/s and 1369.1 ± 1.4 m/s, respectively. The mass density is 1307.5 ± 0.63 kg/m3 in series [3] (288.15 K), 1299.55 ± 0.62 kg/m3 in series [3] (298.15 K) and 1291.62 ± 0.61 kg/m3 in series [3] (308.15 K).

`O` [water] + CCCCCCn1cc[n+](C)c1.N#CN=C=[N-]: the results for the refractive index in series [4] (288.15 K), in series [4] (298.15 K) and in series [4] (308.15 K) were 1.33349 ± 0.00041, 1.33255 ± 0.00042 and 1.33131 ± 0.00042, respectively. Also, in series [5], the speed of sound is recorded as 1522.3 ± 1 m/s.

Regarding `O` [water] + CCCC[N+]1(C)CCCC1.N#CN=C=[N-], the refractive index is on record as 1.33349 ± 0.00041 in series [4] (288.15 K), 1.33255 ± 0.00042 in series [4] (298.15 K) and 1.33131 ± 0.00042 in series [4] (308.15 K). The speed of sound in series [5] came to 1522.3 ± 1 m/s.

Turning to `O` [water] + CCCC[N+]1(C)CCCC1.O=S(=O)([O-])C(F)(F)F, the figures for the refractive index in series [4] (288.15 K), in series [4] (298.15 K) and in series [4] (308.15 K) were 1.33349 ± 0.00041, 1.33255 ± 0.00042 and 1.33131 ± 0.00042, respectively. In addition, in series [5], the speed of sound was 1522.3 ± 1 m/s.

Turning to `O` [water] + CCCC[n+]1cccc(C)c1.O=S(=O)([O-])C(F)(F)F, the values for the refractive index in series [4] (288.15 K), in series [4] (298.15 K) and in series [4] (308.15 K) were 1.33349 ± 0.00041, 1.33255 ± 0.00042 and 1.33131 ± 0.00042, respectively. Also, the speed of sound in series [5] is given as 1522.3 ± 1 m/s.

For the compound `O` [water] + CCCCn1cc[n+](C)c1.N#CN=C=[N-], the figures for the refractive index in series [4] (288.15 K), in series [4] (298.15 K) and in series [4] (308.15 K) were 1.33349 ± 0.00041, 1.33255 ± 0.00042 and 1.33131 ± 0.00042, respectively. The speed of sound in series [5] amounted to 1522.3 ± 1 m/s.

On to `O` [water] + CCCCn1cc[n+](C)c1.O=S(=O)([O-])C(F)(F)F, for which the refractive index is given as 1.33349 ± 0.00041 in series [4] (288.15 K), 1.33255 ± 0.00042 in series [4] (298.15 K) and 1.33131 ± 0.00042 in series [4] (308.15 K). The speed of sound in series [5] was found to be 1522.3 ± 1 m/s.

Consider `O` [water] + CCOS(=O)(=O)[O-].CCc1cccc[n+]1CC, for which the figures for the refractive index in series [4] (288.15 K), in series [4] (298.15 K) and in series [4] (308.15 K) were 1.33349 ± 0.00041, 1.33255 ± 0.00042 and 1.33131 ± 0.00042, respectively. Further, the speed of sound in series [5] was found to be 1522.3 ± 1 m/s.

For the compound `O` [water] + COS(=O)(=O)[O-].C[n+]1ccccc1, the refractive index is on record as 1.33349 ± 0.00041 in series [4] (288.15 K), 1.33255 ± 0.00042 in series [4] (298.15 K) and 1.33131 ± 0.00042 in series [4] (308.15 K). Besides, the speed of sound in series [5] turned out to be 1522.3 ± 1 m/s.

Values taken from the NIST ThermoML archive (doi:10.1021/je201334p).
